Test results reported in BindingDB's records for doi:10.1111/j.1471-4159.1985.tb08803.x (Lundbeck Ais, 1985).
Where a name gives a salt, the structure may show the parent alone.

How the values were obtained:
[1] = molecular target: 5-hydroxytryptamine receptor 2A (Rattus norvegicus, UniProt P14842)
[2] = molecular target: T1, Alpha-1A adrenergic receptor (Rattus norvegicus, UniProt P43140)
T1 sequence (P43140 whole entry): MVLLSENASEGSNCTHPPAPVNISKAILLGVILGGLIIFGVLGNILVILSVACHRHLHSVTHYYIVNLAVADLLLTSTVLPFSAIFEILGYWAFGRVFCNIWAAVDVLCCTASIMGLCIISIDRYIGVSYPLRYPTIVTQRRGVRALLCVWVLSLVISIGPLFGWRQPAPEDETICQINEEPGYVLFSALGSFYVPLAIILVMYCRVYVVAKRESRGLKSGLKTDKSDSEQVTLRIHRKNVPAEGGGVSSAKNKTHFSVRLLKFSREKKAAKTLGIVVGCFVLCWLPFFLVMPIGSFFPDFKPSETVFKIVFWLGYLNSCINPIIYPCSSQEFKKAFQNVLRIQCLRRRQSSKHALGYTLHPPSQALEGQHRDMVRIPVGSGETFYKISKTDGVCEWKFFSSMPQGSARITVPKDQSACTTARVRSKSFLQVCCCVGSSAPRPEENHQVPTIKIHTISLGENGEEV

[3] = molecular target: T2, Muscarinic acetylcholine receptor M2 (Rattus norvegicus, UniProt P10980)
T2 sequence (P10980 whole entry): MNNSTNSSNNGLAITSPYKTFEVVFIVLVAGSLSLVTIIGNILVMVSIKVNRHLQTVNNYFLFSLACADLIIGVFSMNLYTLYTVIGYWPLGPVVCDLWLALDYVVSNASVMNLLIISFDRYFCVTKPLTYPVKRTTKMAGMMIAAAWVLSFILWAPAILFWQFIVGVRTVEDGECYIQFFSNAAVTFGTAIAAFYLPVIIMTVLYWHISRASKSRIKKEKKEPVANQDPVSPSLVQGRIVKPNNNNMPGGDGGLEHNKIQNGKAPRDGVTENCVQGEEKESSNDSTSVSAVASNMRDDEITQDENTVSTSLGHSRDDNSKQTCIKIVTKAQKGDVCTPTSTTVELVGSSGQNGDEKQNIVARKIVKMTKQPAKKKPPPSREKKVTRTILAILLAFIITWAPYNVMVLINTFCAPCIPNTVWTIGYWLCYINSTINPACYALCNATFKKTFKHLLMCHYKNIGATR

D(2) dopamine receptor = D(2) dopamine receptor (Rattus norvegicus, UniProt P61169)
[4] = molecular target: Norepinephrine transporter (Rattus norvegicus, UniProt Q9JIA2)
[5] = molecular target: Sodium-dependent serotonin transporter (Rattus norvegicus, UniProt P31652)
Sequence of Sodium-dependent serotonin transporter (P31652 whole entry): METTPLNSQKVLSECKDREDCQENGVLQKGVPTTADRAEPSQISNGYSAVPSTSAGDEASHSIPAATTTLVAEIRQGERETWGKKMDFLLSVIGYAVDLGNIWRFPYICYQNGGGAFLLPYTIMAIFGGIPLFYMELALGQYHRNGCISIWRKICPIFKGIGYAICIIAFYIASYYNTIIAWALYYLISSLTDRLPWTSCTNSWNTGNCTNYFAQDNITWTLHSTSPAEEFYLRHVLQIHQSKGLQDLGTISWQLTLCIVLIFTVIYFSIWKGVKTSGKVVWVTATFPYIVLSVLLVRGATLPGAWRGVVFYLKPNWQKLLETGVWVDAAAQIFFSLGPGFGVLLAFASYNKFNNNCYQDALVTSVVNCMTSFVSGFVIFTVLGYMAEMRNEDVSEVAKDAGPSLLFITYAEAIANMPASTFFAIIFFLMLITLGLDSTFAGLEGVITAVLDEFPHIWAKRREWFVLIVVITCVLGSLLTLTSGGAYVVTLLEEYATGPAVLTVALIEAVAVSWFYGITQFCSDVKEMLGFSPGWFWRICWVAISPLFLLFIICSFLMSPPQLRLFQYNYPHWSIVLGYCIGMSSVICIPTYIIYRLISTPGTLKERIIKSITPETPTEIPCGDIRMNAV

Sequence of D(2) dopamine receptor (P61169 whole entry): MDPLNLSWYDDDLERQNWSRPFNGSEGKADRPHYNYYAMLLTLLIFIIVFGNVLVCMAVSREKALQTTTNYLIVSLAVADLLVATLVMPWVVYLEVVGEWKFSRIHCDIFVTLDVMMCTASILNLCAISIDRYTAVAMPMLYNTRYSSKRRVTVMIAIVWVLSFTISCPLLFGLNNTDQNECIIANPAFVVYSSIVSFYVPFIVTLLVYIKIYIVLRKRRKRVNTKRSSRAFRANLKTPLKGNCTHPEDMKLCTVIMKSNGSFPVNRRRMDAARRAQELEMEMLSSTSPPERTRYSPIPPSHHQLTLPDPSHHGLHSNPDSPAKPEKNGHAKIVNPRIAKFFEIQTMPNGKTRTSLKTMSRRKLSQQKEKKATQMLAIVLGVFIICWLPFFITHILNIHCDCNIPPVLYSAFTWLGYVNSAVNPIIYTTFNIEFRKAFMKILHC
Sequence of 5-hydroxytryptamine receptor 2A (P14842 whole entry): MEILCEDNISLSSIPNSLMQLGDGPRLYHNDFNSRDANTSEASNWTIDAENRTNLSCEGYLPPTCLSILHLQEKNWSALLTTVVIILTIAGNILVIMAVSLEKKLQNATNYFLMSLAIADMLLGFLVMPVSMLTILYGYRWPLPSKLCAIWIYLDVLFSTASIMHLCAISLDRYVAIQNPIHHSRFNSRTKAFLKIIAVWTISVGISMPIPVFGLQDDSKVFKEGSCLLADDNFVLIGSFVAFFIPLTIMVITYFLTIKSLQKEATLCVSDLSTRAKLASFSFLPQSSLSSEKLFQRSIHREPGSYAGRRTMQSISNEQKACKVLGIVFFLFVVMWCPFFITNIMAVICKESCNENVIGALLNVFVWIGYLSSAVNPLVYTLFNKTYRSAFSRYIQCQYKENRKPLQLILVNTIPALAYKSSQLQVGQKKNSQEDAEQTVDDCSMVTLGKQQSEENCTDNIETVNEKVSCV

## Fc1ccc(C(OCCN2CCN(C/C=C/c3ccccc3)CC2)c2ccc(F)cc2)cc1
[1]
  Ki: 3400 nM
[2]
  Ki: 2200 nM
[3]
  Ki: 2200 nM
D(2) dopamine receptor
  Ki: 810 nM
[4]
  Ki: 13 nM

## COc1ccc2c(c1)CN(C)CC2c1ccc(Cl)c(Cl)c1 (stereo unspecified)
[1]
  Ki: 550 nM
[2]
  Ki: 480 nM
[3]
  Ki: 3700 nM
D(2) dopamine receptor
  Ki: > 10000 nM
[4]
  Ki: 2.3 nM

## CN(C)C[C@@H]1C2CCC(CC2)[C@@H]1c1ccc(Cl)c(Cl)c1
[1]
  Ki: > 10000 nM
[2]
  Ki: > 10000 nM
[3]
  Ki: > 10000 nM
D(2) dopamine receptor
  Ki: 570 nM
[5]
  Ki: 51 nM
[4]
  Ki: 5.4 nM

## CNCCC(Oc1ccccc1OC)c1ccccc1 (stereo unspecified) [3-(2-methoxyphenoxy)-N-methyl-3-phenylpropan-1-amine]
[1]
  Ki: 620 nM
[2]
  Ki: 4300 nM
[3]
  Ki: 5000 nM
D(2) dopamine receptor
  Ki: > 10000 nM

## CN1Cc2c(N)cccc2[C@H](c2ccccc2)C1 [(+/-)-2-Methyl-4-phenyl-1,2,3,4-tetrahydro-isoquinolin-8-ylamine]
[2]
  Ki: 1200 nM
[3]
  Ki: > 10000 nM
D(2) dopamine receptor
  Ki: > 10000 nM
[4]
  Ki: 6.6 nM

## CC(NC(C)(C)C)C(=O)c1cccc(Cl)c1 (stereo unspecified) [BUPROPION HYDROCHLORIDE]
[2]
  Ki: > 10000 nM
[3]
  Ki: > 10000 nM
D(2) dopamine receptor
  Ki: > 10000 nM
[4]
  Ki: 1500 nM

## C(=C\c1ccccc1)/CN1CCN(CCOC(c2ccccc2)c2ccccc2)CC1 [CAS_67469-75-4]
[1]
  Ki: 1000 nM
[2]
  Ki: 270 nM
[3]
  Ki: 900 nM
D(2) dopamine receptor
  Ki: 2500 nM
[5]
  Ki: 1900 nM
[4]
  Ki: 29 nM

## CN[C@H]1C[C@H](c2ccc(Cl)c(Cl)c2)c2ccccc21 [CAS_96850-13-4]
[2]
  Ki: 740 nM
[3]
  Ki: > 10000 nM
D(2) dopamine receptor
  Ki: > 10000 nM

## CN(C)CCCC1(c2ccc(F)cc2)OCc2cc(C#N)ccc21 (stereo unspecified) [CITALOPRAM HYDROBROMIDE]
[2]
  Ki: 1600 nM
[3]
  Ki: 4800 nM
D(2) dopamine receptor
  Ki: > 10000 nM

## CNCCCC1(c2ccccc2)SC(C)(C)c2ccccc21 (stereo unspecified) [Talsupram]
[1]
  Ki: 1600 nM
[2]
  Ki: > 10000 nM
[3]
  Ki: 1300 nM
D(2) dopamine receptor
  Ki: > 10000 nM
[5]
  Ki: 850 nM
[4]
  Ki: 0.79 nM
